The target of this test is recombinantly expressed human PARP-1 enzyme (Homo sapiens, UniProt P09874). Kind of test: PARP enzyme assay. It counts as biochemical. Conditions: DNA-activated PARP-1, 200 μM NAD, tritium-labeled NAD incorporation, pH=8.0, room temperature, 1 hour. The method, then: Pharmacological Investigations PARP Enzyme Assay
Chain of recombinantly expressed human PARP-1 enzyme (P09874 whole entry): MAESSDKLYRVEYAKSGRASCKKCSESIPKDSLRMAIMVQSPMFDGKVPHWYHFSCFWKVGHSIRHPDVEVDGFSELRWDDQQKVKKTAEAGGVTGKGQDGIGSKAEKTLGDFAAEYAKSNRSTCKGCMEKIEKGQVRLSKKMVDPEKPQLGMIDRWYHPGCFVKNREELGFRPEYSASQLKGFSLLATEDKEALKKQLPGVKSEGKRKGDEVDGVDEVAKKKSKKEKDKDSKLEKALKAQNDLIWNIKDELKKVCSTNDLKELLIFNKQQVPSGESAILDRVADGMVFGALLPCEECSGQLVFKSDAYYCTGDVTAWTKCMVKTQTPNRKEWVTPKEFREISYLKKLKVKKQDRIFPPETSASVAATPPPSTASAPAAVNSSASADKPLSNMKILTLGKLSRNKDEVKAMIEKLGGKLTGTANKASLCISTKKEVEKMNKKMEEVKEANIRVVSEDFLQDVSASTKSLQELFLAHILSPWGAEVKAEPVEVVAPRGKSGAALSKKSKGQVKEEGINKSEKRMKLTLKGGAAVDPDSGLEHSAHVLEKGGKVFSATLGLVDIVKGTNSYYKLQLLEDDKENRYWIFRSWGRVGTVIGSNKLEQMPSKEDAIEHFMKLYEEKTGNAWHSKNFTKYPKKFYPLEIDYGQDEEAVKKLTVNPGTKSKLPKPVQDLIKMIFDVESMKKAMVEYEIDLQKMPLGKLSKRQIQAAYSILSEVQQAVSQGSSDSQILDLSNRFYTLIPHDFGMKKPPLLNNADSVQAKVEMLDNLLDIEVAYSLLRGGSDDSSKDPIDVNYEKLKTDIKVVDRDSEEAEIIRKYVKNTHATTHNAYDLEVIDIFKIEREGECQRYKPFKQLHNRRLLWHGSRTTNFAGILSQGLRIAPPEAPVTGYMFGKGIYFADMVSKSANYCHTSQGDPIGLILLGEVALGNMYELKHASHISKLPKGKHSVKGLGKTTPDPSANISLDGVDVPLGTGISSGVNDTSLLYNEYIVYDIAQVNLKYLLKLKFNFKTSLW
The half-maximum inhibitor concentration is determined by incubating the substances to be tested with the DNA-activated, recombinantly expressed and purified PARP-1 enzyme. Specifically, various concentrations of the test substance are incubated in 50 μl of reaction solution, which contains 50 mM Tris, 5 mM MgCl2, 1 mM DTT, 200 μM NAD, 0.1 mCi/ml tritium-labeled NAD, 0.1 mg/ml DNA, 0.1 mg/ml histones, 2 μg/ml recombinantly expressed human PARP-1 enzyme, pH=8.0, at room temperature for 1 hour. The reaction is stopped by adding 150 μl of 20% trichloroacetic acid, and the radiolabelled protein constituents are precipitated. After incubation on ice for 10 minutes, the labeled, insoluble constituents are separated off through a glass fiber filter and, after washing with 20% trichloroacetic acid three times, the radioactivity incorporated by the PARP-1 enzyme is measured by radioluminescence. Consideration of the incorporation rates determined in this way as a function of the concentration of the test substance results in the half-maximum inhibitor concentration (IC50) as the concentration of the test substance which reduces the incorporation rate to half the maximum value attainable (incubation without inhibitor).
As for `CCc1cc(Nc2cccc(C#N)c2)c(C)[nH]c1=O` [Example 1, 3-(5-ethyl-2-methyl-6-oxo-1,6-dihydropyridin-3-ylamino)benzonitrile], the half-inhibitory concentration (IC50) turned out to be 9 µM.
Consider `CCc1cc(Nc2ccc(S(=O)(=O)Nc3ccccn3)cc2)c(C)[nH]c1=O` [Example 10, 4-(5-ethyl-2-methyl-6-oxo-1,6-dihydropyridin-3-ylamino)-N-pyridin-2-yl-benzenesulfonamide], for which the IC50 worked out at 6.2 µM.
As to `CCc1cc(Nc2cccc(C(C)=O)c2)c(C)[nH]c1=O` [Example 3, 5-(3-acetylphenylamino)-3-ethyl-6-methyl-1H-pyridin-2-one], the 50% inhibitory concentration (IC50) was found to be 1.3 µM.
The result for `CCc1cc(Nc2cccc(S(C)(=O)=O)c2)c(C)[nH]c1=O` [Example 24, 3-ethyl-5-(3-methanesulfonylphenylamino)-6-methyl-1H-pyridin-2-one] reads 6.1 µM; that for `CCc1cc(Nc2ccc(S(N)(=O)=O)cc2)c(C)[nH]c1=O` [Example 6, 4-(5-ethyl-2-methyl-6-oxo-1,6-dihydropyridin-3-ylamino)benzenesulfonamide], 9.8 µM; that for `CCc1cc(Nc2ccc(NC(C)=O)cn2)c(C)[nH]c1=O` [Example 12, N-[6-(5-ethyl-2-methyl-6-oxo-1,6-dihydropyridin-3-ylamino)pyridin-3-yl]-acetamide], 1.1 µM.
Under `CCc1cc(Nc2cccc(NC(C)=O)c2)c(C)[nH]c1=O` [Example 4, N-[3-(5-ethyl-2-methyl-6-oxo-1,6-dihydropyridin-3-ylamino)phenyl]acetamide] stands 0.8 µM.
The result for `CCc1cc(Nc2ccc(C(C)=O)cc2)c(C)[nH]c1=O` [Example 18, 5-(4-acetylphenylamino)-3-ethyl-6-methyl-1H-pyridin-2-one] reads 4.4 µM.
Regarding `CCc1cc(Nc2cccnc2)c(C)[nH]c1=O` [Example 19, 3-ethyl-6-methyl-5-(pyridin-3-ylamino)-1H-pyridin-2-one], the concentration for half-maximal inhibition (IC50) is 9.2 µM.
The result for `CCc1cc(Nc2cccc(C(N)=O)c2)c(C)[nH]c1=O` [Example 2, 3-(5-ethyl-2-methyl-6-oxo-1,6-dihydropyridin-3-ylamino)benzamide] reads 2.2 µM.
The result for `CCc1cc(Nc2ccc3c(c2)N(C(C)=O)CC3)c(C)[nH]c1=O` [Example 9, 5-(1-acetyl-2,3-dihydro-1H-indol-6-ylamino)-3-ethyl-6-methyl-1H-pyridin-2-one] reads 3.4 µM; that for `CCc1cc(Nc2cccc(CO)c2)c(C)[nH]c1=O` [Example 23, 3-ethyl-5-(3-hydroxymethylphenylamino)-6-methyl-1H-pyridin-2-one], 9.8 µM.
The result for `CCc1cc(Oc2cccc(OC)c2)c(C)[nH]c1=O` [Example 20, 3-ethyl-5-(3-methoxyphenoxy)-6-methyl-1H-pyridin-2-one] reads 4.8 µM; that for `CCc1cc(Nc2ccc(C#N)cn2)c(C)[nH]c1=O` [Example 13, 6-(5-ethyl-2-methyl-6-oxo-1,6-dihydropyridin-3-ylamino)nicotinonitrile], 3.9 µM.
With `CCc1cc(Nc2ccc(Oc3cccnc3)cc2)c(C)[nH]c1=O` [Example 7, 3-ethyl-6-methyl-5-[4-(pyridin-3-yloxy)phenylamino]-1H-pyridin-2-one], the IC50 amounted to 4.7 µM.
Under `CCc1cc(Nc2ccncc2)c(C)[nH]c1=O` [Example 15, 3-ethyl-6-methyl-5-(pyridin-4-ylamino)-1H-pyridin-2-one] stands 9.5 µM.

Broadly, the IC50 is the concentration that inhibits the measured activity by half.

(Values after US7863280B2, “Substituted 2-pyridone derivatives, method for their preparation and their use as medicament” (Sanofi-Aventis Deutschland GmbH, priority 2004, dated 2011).)
